According to ChEMBL document CHEMBL1146218, “Highly brominated mono- and bis-phenols from the marine red alga Symphyocladia latiuscula with radical-scavenging activity” (J Nat Prod, 2007):

Assay: DPPH radical scavenging activity
Assay type: functional

IC50 [µM]	Structure (SMILES)
14	Cc1c(Br)c(O)c(O)c(Br)c1Br
15.5	COCc1c(Br)c(O)c(O)c(Br)c1Br
18.5	O=C1CCCN1Cc1c(Br)c(O)c(O)c(Br)c1Br
10.5	COCc1c(Br)c(O)c(O)c(Br)c1Cc1c(Br)c(O)c(O)c(Br)c1Br
24	CS(=O)(=O)Cc1c(Br)c(O)c(O)c(Br)c1Br
24.7	O=Cc1c(Br)c(O)c(O)c(Br)c1Br
8.1	Oc1c(O)c(Br)c(Cc2c(Br)c(O)c(O)c(Br)c2Br)c(Br)c1Br
10.2	Oc1c(O)c(Br)c(CCc2c(Br)c(O)c(O)c(Br)c2Br)c(Br)c1Br
81.8	Cc1cc(C(C)(C)C)c(O)c(C(C)(C)C)c1 [BUTYLATED HYDROXYTOLUENE]

Structure (SMILES)	IC50 [µM]
Oc1c(O)c(Br)c(COCc2c(Br)c(O)c(O)c(Br)c2Br)c(Br)c1Br	8.5
